Among the test systems are 786-0; A498; ACHN; CAKI-1; HCC 2998; HCT-116; HOP-62; LOX IMVI; M14; OVCAR-3; SF-268; SK-MEL-28; SK-MEL-5; SK-OV-3; TK-10; U-251; DU-145; MCF7; MDA-MB-231.
Holding throughout (experiment): NCI tumour cell line growth inhibition, 48 h

Here are results for 12 molecules from ChEMBL document CHEMBL1201862, “PubChem BioAssay data set” (2004).

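A five-concentration, 48-hour dose response in 96-well plates underlies each endpoint, interpolated linearly between surrounding concentrations. At the GI50, growth is halved.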 Calls of active or inactive are those of the source. No stated cut-off is given here; in the data, active = GI50 up to about 1.1 µM and inactive = higher.

Consider `CCc1c(-c2coc(CC/C(C)=C/c3ccccc3)n2)oc(OC)c(C)c1=O`, for which the GI50 is 18.1 µM (inactive) in the test with 786-0; 99.8 µM (inactive) in the test with A498; 22.5 µM (inactive) in the test on ACHN; > 52.2 µM (inactive) in the test on CAKI-1; 78.7 µM (inactive) in the test on HCC 2998; 19 µM (inactive) in the test with HCT-116. Also, the GI50 in the test on HOP-62 is > 40 µM (inactive); with LOX IMVI it was 15.1 µM (inactive); with M14, 34.8 µM (inactive); with OVCAR-3, 45.2 µM (inactive); in the test with SF-268, > 100 µM (inactive); in the test on SK-MEL-28, > 100 µM (inactive). For the same molecule, the GI50 with SK-MEL-5 is 4.12 µM (inactive); with SK-OV-3 it was 32.7 µM (inactive); with TK-10 it was > 100 µM (inactive); in the test on U-251 it was 29 µM (inactive).
As to `c1cc2c(ncc3cscc32)s1`, the GI50 in the test with 786-0 was > 100 µM (inactive); with A498, 51.1 µM (inactive); in the test on ACHN, > 100 µM (inactive); in the test with CAKI-1 it was > 72.4 µM (inactive); in the test with DU-145, > 100 µM (inactive); in the test with HCC 2998, > 100 µM (inactive). The GI50 in the test on HCT-116 is > 31.6 µM (inactive); in the test on HOP-62 it was > 100 µM (inactive); in the test on LOX IMVI it was > 49.5 µM (inactive); in the test with M14, > 100 µM (inactive); with MCF7, > 100 µM (inactive); with MDA-MB-231, > 100 µM (inactive). The GI50 in the test on OVCAR-3 was > 100 µM (inactive); with SF-268, > 100 µM (inactive); with SK-MEL-28, > 100 µM (inactive); in the test with SK-MEL-5 it was > 100 µM (inactive); in the test on SK-OV-3, > 10 µM (inactive); with TK-10, > 100 µM (inactive). Moreover, the GI50 with U-251 is > 87.3 µM (inactive).
As to `COc1ccc(C2C=C(c3ccccc3)Nc3nnnn32)cc1` (stereo unspecified), the GI50 in the test with 786-0 was 27.5 µM (inactive); with A498, 34.4 µM (inactive); with ACHN it was 24.1 µM (inactive); in the test with CAKI-1 it was 54 µM (inactive); in the test on DU-145, 28.4 µM (inactive); in the test with HCT-116, 13.5 µM (inactive). The GI50 was 25.5 µM (inactive) in the test on HOP-62; 41.7 µM (inactive) in the test on LOX IMVI; 68.2 µM (inactive) with M14; 20.2 µM (inactive) in the test with MCF7; 26.6 µM (inactive) in the test on MDA-MB-231; 24.9 µM (inactive) in the test with OVCAR-3. For the same molecule, the GI50 in the test with SF-268 is 44.9 µM (inactive); with SK-MEL-5 it was 34.4 µM (inactive); in the test on SK-OV-3, 31.7 µM (inactive); in the test on TK-10, 6.27 µM (inactive); in the test with U-251, 19.7 µM (inactive).
In the case of `O=C1c2ccccc2C(=O)N1CCN(CCN1C(=O)c2ccccc2C1=O)Cn1cccn1`, the GI50 in the test on 786-0 is > 100 µM (inactive); in the test with A498, > 100 µM (inactive); in the test on ACHN, > 100 µM (inactive); in the test with CAKI-1, > 100 µM (inactive); with HCC 2998, > 100 µM (inactive); in the test with HCT-116, 17.8 µM (inactive). Besides, the GI50 is > 100 µM (inactive) in the test on HOP-62; > 100 µM (inactive) in the test with LOX IMVI; > 100 µM (inactive) with M14; > 100 µM (inactive) in the test with OVCAR-3; > 100 µM (inactive) in the test with SF-268; 73.8 µM (inactive) in the test with SK-MEL-28. Moreover, the GI50 in the test with SK-MEL-5, with SK-OV-3, in the test with TK-10 and in the test on U-251 was > 100 µM (inactive) throughout.
`CC1=NN(C(=O)CC(=O)Nc2cccc(C)c2)C(=O)C1/N=N/c1ccc(S(=O)(=O)CCOS(=O)(=O)O)cc1` (stereo unspecified): the GI50 with 786-0 is 0.463 µM (active); in the test with A498 it was 11.5 µM (inactive); in the test with ACHN, 4.72 µM (inactive); in the test on CAKI-1, 0.546 µM (active); with DU-145, 32.3 µM (inactive); with HCC 2998, 2.17 µM (inactive). Moreover, the GI50 with HCT-116 was 0.373 µM (active); with HOP-62, 5.47 µM (inactive); in the test with LOX IMVI it was 0.345 µM (active); with M14, 0.484 µM (active); in the test on MCF7 it was 0.746 µM (active); in the test with MDA-MB-231, 0.275 µM (active). The GI50 was 3.65 µM (inactive) with OVCAR-3; 5.57 µM (inactive) in the test on SF-268; 3.9 µM (inactive) in the test on SK-MEL-28; 0.369 µM (active) with SK-MEL-5; 0.326 µM (active) in the test on SK-OV-3; 13.1 µM (inactive) with TK-10. Moreover, the GI50 with U-251 was 3.32 µM (inactive).
On to `NC(=O)C(=O)N/N=C(\CC1(O)C(=O)Nc2ccccc21)c1ccc2ccccc2c1` (stereo unspecified), for which the GI50 in the test on 786-0 was 36.5 µM (inactive); in the test on A498, 17.9 µM (inactive); in the test on ACHN, 32.9 µM (inactive); with CAKI-1, 35.2 µM (inactive); in the test with HCC 2998, 41.5 µM (inactive); with HCT-116 it was 9.48 µM (inactive). Besides, the GI50 in the test with HOP-62 is 51.2 µM (inactive); in the test with LOX IMVI it was 30.3 µM (inactive); in the test on M14 it was 32.7 µM (inactive); in the test on OVCAR-3, 25.8 µM (inactive); in the test on SF-268, 40.9 µM (inactive); in the test with SK-MEL-28 it was 26.9 µM (inactive). The GI50 in the test with SK-MEL-5 is 32.3 µM (inactive); in the test with SK-OV-3 it was 46.9 µM (inactive); in the test on TK-10, 50.2 µM (inactive); in the test on U-251, 25.9 µM (inactive).
For the molecule `Oc1nc(CC(O)c2ccc(Cl)c(Cl)c2)cc(-c2ccccc2)n1` (stereo unspecified), the GI50 with 786-0 was > 100 µM (inactive); with A498 it was 32.7 µM (inactive); in the test on ACHN, > 100 µM (inactive); in the test with CAKI-1 it was 55.6 µM (inactive); with HCC 2998, 33.5 µM (inactive); with HCT-116, 49.8 µM (inactive). The GI50 was > 100 µM (inactive) with HOP-62; > 100 µM (inactive) in the test with LOX IMVI; 91 µM (inactive) in the test with M14; 48.8 µM (inactive) with OVCAR-3; 80.7 µM (inactive) in the test with SF-268; > 100 µM (inactive) in the test with SK-MEL-28. For the same molecule, the GI50 in the test on SK-MEL-5 is 37.8 µM (inactive); in the test with SK-OV-3, 43.6 µM (inactive); in the test with TK-10, 24.8 µM (inactive); in the test on U-251 it was > 100 µM (inactive).
Consider `CC(=O)Nc1ccc(C2C(C(=O)Nc3ccccc3C)=C(C)NC(C)=C2C(=O)Nc2ccccc2C)cc1`, for which the GI50 with 786-0, with A498, in the test on ACHN, with CAKI-1, in the test on HCC 2998 and in the test on HCT-116 was > 100 µM (inactive) in each case. The GI50 with HOP-62, with LOX IMVI, with M14, with OVCAR-3, in the test with SF-268 and with SK-MEL-28 was > 100 µM (inactive) throughout. Also, the GI50 in the test with SK-MEL-5, with SK-OV-3, with TK-10 and with U-251 was > 100 µM (inactive) in each case.
In the case of `Cc1cccc(NC(=O)C(=O)C2C(=O)NC(=O)NC2=O)c1C`, the GI50 with 786-0, in the test on A498, in the test on ACHN, in the test on CAKI-1, with HCC 2998 and in the test on HCT-116 was > 100 µM (inactive) in each case. Also, the GI50 in the test on HOP-62, in the test with LOX IMVI, in the test on M14, in the test with OVCAR-3, in the test on SF-268 and with SK-MEL-28 was > 100 µM (inactive) in each case. For the same molecule, the GI50 in the test on SK-MEL-5, in the test on SK-OV-3, in the test on TK-10 and in the test on U-251 was > 100 µM (inactive) in each case.
Take `CCN(CC)CCNc1ccc(C)c2sc3ccc(O)cc3c(=O)c12`: the GI50 with 786-0 is 0.655 µM (active); in the test with A498, 1.33 µM (inactive); in the test with ACHN, 0.201 µM (active); in the test on CAKI-1, 5.73 µM (inactive); with HCC 2998 it was 1.36 µM (inactive); in the test on HCT-116 it was 1.15 µM (inactive). For the same molecule, the GI50 in the test with HOP-62 was 0.274 µM (active); in the test with LOX IMVI, 0.711 µM (active); with M14, 1.19 µM (inactive); with OVCAR-3 it was 2.15 µM (inactive); in the test on SF-268, 1.8 µM (inactive); in the test with SK-MEL-28, 1.49 µM (inactive). Also, the GI50 was 0.851 µM (active) in the test with SK-MEL-5, 1.52 µM (inactive) in the test with SK-OV-3, 3.4 µM (inactive) with TK-10 and 1.09 µM (active) in the test with U-251.
On to `CN(C)Cc1cc(C(=O)/C=C/c2ccc(F)cc2)cc(CN(C)C)c1O`, for which the GI50 was 37.7 µM (inactive) with 786-0; 24.5 µM (inactive) in the test with A498; 14.6 µM (inactive) in the test on ACHN; 18.7 µM (inactive) in the test with CAKI-1; 42.2 µM (inactive) in the test with DU-145; > 10 µM (inactive) with HCC 2998. The GI50 in the test with HCT-116 is 13.4 µM (inactive); in the test on HOP-62, 21.6 µM (inactive); in the test with LOX IMVI, 5.92 µM (inactive); in the test on M14, 12.4 µM (inactive); in the test with MCF7, 16.2 µM (inactive); in the test with MDA-MB-231, 31 µM (inactive). Moreover, the GI50 was 9.23 µM (inactive) in the test with OVCAR-3; 22.8 µM (inactive) in the test on SF-268; 29.2 µM (inactive) in the test on SK-MEL-28; 19.1 µM (inactive) in the test on SK-MEL-5; 85.9 µM (inactive) with TK-10; 24.4 µM (inactive) in the test with U-251.
Take `COc1ccc(NC(=O)CC(=O)N/N=C/c2ccc(N(CCC#N)S(C)(=O)=O)cc2)cc1`: the GI50 in the test on 786-0, in the test with A498, in the test with ACHN, in the test with CAKI-1, in the test on HCC 2998 and with HCT-116 was > 100 µM (inactive) each time. In addition, the GI50 with HOP-62, in the test on LOX IMVI, in the test on M14, with OVCAR-3, in the test with SF-268 and in the test with SK-MEL-28 was > 100 µM (inactive) throughout. The GI50 in the test on SK-MEL-5, in the test on SK-OV-3, in the test with TK-10 and in the test with U-251 was > 100 µM (inactive) in each case.
